Reference: US12077604B2, “Deuterated compounds, compositions, and methods for treating cancers associated with ETBR activation” (ENB Therapeutics Inc., priority 2018, dated 2024)
“Also recorded” adds a separate entry of the source.

Tests used:
ETB (h) = molecular target: T1, ETB (h) (Homo sapiens, UniProt P24530); test: ETB (h) cellular antagonist effect; format: cell-based
T1 sequence (P24530 27-442): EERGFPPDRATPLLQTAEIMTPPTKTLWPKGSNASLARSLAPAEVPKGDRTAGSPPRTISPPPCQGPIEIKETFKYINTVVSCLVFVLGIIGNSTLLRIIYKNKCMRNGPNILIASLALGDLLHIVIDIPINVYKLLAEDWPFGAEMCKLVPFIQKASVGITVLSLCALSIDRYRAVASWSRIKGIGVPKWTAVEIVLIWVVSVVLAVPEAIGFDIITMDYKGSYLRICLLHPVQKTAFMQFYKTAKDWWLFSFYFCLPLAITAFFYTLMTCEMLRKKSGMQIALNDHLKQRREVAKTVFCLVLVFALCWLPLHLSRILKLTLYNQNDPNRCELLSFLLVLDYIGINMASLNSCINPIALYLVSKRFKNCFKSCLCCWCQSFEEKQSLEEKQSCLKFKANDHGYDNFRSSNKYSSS
Procedure: (§1) Cellular agonist effect was calculated as a % of control response to a known reference agonist for ETB (h), and cellular antagonist effect was calculated as a % inhibition of control reference agonist response for ETB.
as §1, with “Determination of ETBR inhibitory effect for specifically deuterated ETRB antagonists. […] Cellular” for “Cellular”

ETA (h) = molecular target: T2, ETA (h) (Homo sapiens, UniProt P25101); test: ETA (h) cellular antagonist effect; format: cell-based
T2 sequence (P25101 21-427): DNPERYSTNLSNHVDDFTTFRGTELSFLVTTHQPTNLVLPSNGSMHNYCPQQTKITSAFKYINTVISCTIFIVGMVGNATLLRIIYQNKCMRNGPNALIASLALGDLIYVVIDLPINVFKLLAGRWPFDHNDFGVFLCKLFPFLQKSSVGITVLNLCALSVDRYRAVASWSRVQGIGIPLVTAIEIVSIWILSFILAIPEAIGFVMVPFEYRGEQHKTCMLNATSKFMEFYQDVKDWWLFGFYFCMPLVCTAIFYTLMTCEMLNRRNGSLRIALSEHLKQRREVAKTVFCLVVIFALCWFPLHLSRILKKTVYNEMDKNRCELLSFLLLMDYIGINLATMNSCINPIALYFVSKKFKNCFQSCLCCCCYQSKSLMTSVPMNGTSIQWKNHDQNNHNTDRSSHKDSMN
Procedure: FIGS. 5A and 5B show determination of ETA (h) inhibitory effect for A) BQ-788 and B) BQ-788-B, a specifically deuterated ETRB antagonist. Cellular agonist effect was calculated as a % of control response to a known reference agonist for ETA (h), and cellular antagonist effect was calculated as a % inhibition of control reference agonist response for ETA.
Cellular agonist effect was calculated as a % of control response to a known reference agonist for ETA (h), and cellular antagonist effect was calculated as a % inhibition of control reference agonist response for ETA.

ETBR = test: Plasma ET-1 ELISA after IV infusion, indirect measure of ETBR engagement; format: in vivo; details: rats, 250 μg/kg IV infusion
Procedure: Briefly, rats (N=4 animals per timepoint) were administered either BQ-788 or the deuterated form, BQ-788-B at a dose of 250 μg/kg via IV infusion. Plasma samples were collected at various time points and ET-1 ELISA performed. BQ788 and BQ788-B are peptide drugs that are rapidly degraded in plasma and thus drug levels are difficult to detect directly. […] As such, plasma levels of ET-1 are commonly used as an indirect measure of BQ-788 biologic activity.

CXCR4 (h) = molecular target: T3, CXCR4 (h) (Homo sapiens, UniProt P61073); test: CXCR4 (h) cellular antagonist effect, impedance by dielectric spectroscopy, stimulated with 1 nM SDF-1α; format: cell-based; details: recombinant human CXCR4 in CHO cells, 28° C.
T3 construct: expressed in transfected cells; host or cells: CHO cells
T3 sequence (P61073 whole entry): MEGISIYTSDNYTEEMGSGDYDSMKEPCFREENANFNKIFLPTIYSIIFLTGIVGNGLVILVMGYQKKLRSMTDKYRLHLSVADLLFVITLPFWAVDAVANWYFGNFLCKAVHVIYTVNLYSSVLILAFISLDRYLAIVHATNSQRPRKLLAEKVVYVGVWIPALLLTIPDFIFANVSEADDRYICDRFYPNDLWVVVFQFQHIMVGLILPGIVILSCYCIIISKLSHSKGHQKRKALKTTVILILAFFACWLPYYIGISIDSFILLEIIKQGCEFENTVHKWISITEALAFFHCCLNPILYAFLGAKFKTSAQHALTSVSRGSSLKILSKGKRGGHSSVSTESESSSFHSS
Procedure: FIGS. 4A and 4B show determination of CXCR4 (h) inhibitory effect for, A) BQ-788 and B) BQ-788-B, a specifically deuterated ETRB antagonist (i.e., “Compound 1”). Cellular agonist effect was calculated as a % of control response to a known reference agonist for CXCR4 (h), and cellular antagonist effect was calculated as a % inhibition of control reference agonist response for CXCR4.
Determination of CXCR4 inhibitory effect. The inhibitory effect on CXCR4 (h) was determined for BQ-788 (FIG. 4A), and BQ-788 (FIG. 4B) BQ-788-B (i.e., “Compound 1”). Cellular agonist effect was calculated as a % of control response to a known reference agonist for CXCR4 (h), and cellular antagonist effect was calculated as a % inhibition of control reference agonist response for CXCR4. Recombinant human CXCR4 was expressed in CHO cells, and stimulated with 1 nM SDF-1α and incubated at 28° C. Dielectric spectroscopy was used to measure impedance of the cells.

Kd (ETB (h)) | IC50 (CXCR4 (h); read-out: IC50, inhibition of control reference agonist response for CXCR4 (h)) | SMILES | IC50 (ETB (h); read-out: IC50, inhibition of control reference agonist response for ETB (h)) | IC50, inhibition of control reference agonist response for ETA (h) (ETA (h)) | plasma ET-1 response: prolonged peak out to (ETBR; ET-1 ELISA) | biologic activity in vivo by plasma ET-1 (duration and amplitude of response) (ETBR; compared with non-deuterated BQ-788) | IC50, inhibition of control reference agonist response for CXCR4 (h) (CXCR4 (h))
– | – | [2H]C[C@@H]1CCC[C@H](C[2H])N1C(=O)N[C@@H](CC(C)(C)C)C(=O)N[C@H](Cc1cn(C(=O)OC)c2ccccc12)C(=O)N[C@H](CCCC)C(=O)O [BQ-788-B] | 96 nM | not calculable | about 3 hours | enhanced duration and amplitude of response relative to the undeuterated form; also recorded: enhanced biological activity relative to BQ-788 | not calculable
13 nM | > 1000 nM | CCCC[C@@H](NC(=O)[C@@H](Cc1cn(C(=O)OC)c2ccccc12)NC(=O)[C@H](CC(C)(C)C)NC(=O)N1[C@H](C)CCC[C@@H]1C)C(=O)O [BQ-788] | – | not calculable | – | – | –
